Reference: paper PMC11200585, “Prospects for Prostate Cancer Chemotherapy: Cytotoxic Evaluation and Mechanistic Insights of Quinolinequinones with ADME/PK Profile” (Biomedicines, 2024)

Key:
Type in all cases: cell-based, human
[1] = tested on: UO-31; assay: NCI-60 five-dose assay (renal cancer); conditions: 48 h, SRB
[2] = tested on: BT-549; assay: NCI-60 five-dose assay (breast cancer); conditions: 48 h, SRB
[3] = tested on: NCI-H460; assay: NCI-60 five-dose assay (non-small cell lung cancer); conditions: 48 h, SRB
[4] = tested on: SNB-75; assay: NCI-60 five-dose assay (CNS cancer); conditions: 48 h, SRB
[5] = tested on: NCI-H522; assay: NCI-60 five-dose assay (non-small cell lung cancer); conditions: 48 h, SRB
[6] = tested on: PC-3; assay: NCI-60 five-dose assay (prostate cancer); conditions: 48 h, SRB
[7] = tested on: KM12; assay: NCI-60 one-dose screen (colon cancer); conditions: 10 µM single dose, 48 h
Description: (§1) The obtained quinolinequinones were submitted to NCI, Bethesda, USA, and, as per standard protocol of NCI, all compounds were evaluated for their antiproliferative activity at single-dose assay (10 µM concentration in DMSO) on a panel of 60 cancer cell lines derived from leukemia, non-small-cell lung, colon, CNS, melanoma, ovarian, renal, prostate, and breast, as per protocol. Tested compounds were added to the microtiter culture plates followed by incubation for 48 h at 37 °C. Sulforhodamine B (SRB), a protein-binding dye, is used for endpoint determination. The percent of the growth of the treated cells was determined in comparison to the untreated control cells and the results of each tested compound were reported. Data from one-dose experiments pertain to the percentage growth at 10 μM [16, 17, 18].

[8] = tested on: HCT-116; assay: NCI-60 one-dose screen (colon cancer); conditions: 10 µM single dose, 48 h
Description: as §1

[9] = tested on: COLO 205; assay: NCI-60 one-dose screen (colon cancer); conditions: 10 µM single dose, 48 h
Description: as §1

[10] = tested on: SW-620; assay: NCI-60 one-dose screen (colon cancer); conditions: 10 µM single dose, 48 h
Description: as §1

[11] = tested on: HT29; assay: NCI-60 one-dose screen (colon cancer)
Description: as §1

[12] = tested on: HCC-2998; assay: NCI-60 one-dose screen (colon cancer); conditions: 10 µM single dose, 48 h
Description: as §1

[13] = tested on: HCT-15; assay: NCI-60 one-dose screen (colon cancer); conditions: 10 µM single dose, 48 h
Description: as §1

[14] = tested on: NCI/ADR-RES; assay: NCI-60 five-dose assay (ovarian cancer); conditions: 48 h, SRB
[15] = tested on: IGROV1; assay: NCI-60 five-dose assay (ovarian cancer); conditions: SRB
[16] = tested on: EKVX; assay: NCI-60 five-dose assay (non-small cell lung cancer); conditions: 48 h, SRB
[17] = tested on: HCC-2998; assay: NCI-60 five-dose assay (colon cancer); conditions: 48 h, SRB
[18] = tested on: MOLT-4; assay: NCI-60 five-dose assay (leukemia); conditions: 48 h, SRB
[19] = tested on: SF-295; assay: NCI-60 five-dose assay (CNS cancer); conditions: 48 h, SRB
[20] = tested on: HT29; assay: NCI-60 five-dose assay (colon cancer); conditions: SRB
[21] = tested on: MDA-MB-435; assay: NCI-60 five-dose assay (melanoma); conditions: 48 h, SRB
[22] = tested on: OVCAR-3; assay: NCI-60 five-dose assay (ovarian cancer); conditions: 48 h, SRB
[23] = tested on: SF-268; assay: NCI-60 five-dose assay (CNS cancer); conditions: 48 h, SRB
[24] = tested on: NCI-H23; assay: NCI-60 one-dose screen (non-small cell lung cancer); conditions: 10 µM single dose, 48 h
[25] = tested on: SN12C; assay: NCI-60 one-dose screen (renal cancer); conditions: 10 µM single dose, 48 h
Description: as §1

[26] = tested on: TK-10; assay: NCI-60 one-dose screen (renal cancer); conditions: 10 µM single dose, 48 h
Description: as §1

[27] = tested on: 786-0; assay: NCI-60 one-dose screen (renal cancer); conditions: 10 µM single dose
Description: as §1

[28] = tested on: A498; assay: NCI-60 one-dose screen (renal cancer); conditions: 10 µM single dose, 48 h
Description: as §1

[29] = tested on: ACHN; assay: NCI-60 one-dose screen (renal cancer); conditions: 10 µM single dose, 48 h
Description: as §1

[30] = tested on: UO-31; assay: NCI-60 one-dose screen (renal cancer); conditions: 10 µM single dose, 48 h
Description: as §1

[31] = tested on: SK-MEL-5; assay: NCI-60 one-dose screen (melanoma); conditions: 10 µM single dose, 48 h
Description: as §1

[32] = tested on: SK-MEL-28; assay: NCI-60 one-dose screen (melanoma); conditions: 10 µM single dose
Description: as §1

[33] = tested on: UACC-62; assay: NCI-60 one-dose screen (melanoma); conditions: 10 µM single dose, 48 h
Description: as §1

[34] = tested on: MDA-MB-435; assay: NCI-60 one-dose screen (melanoma); conditions: 10 µM single dose, 48 h
Description: as §1

[35] = tested on: LOX IMVI; assay: NCI-60 one-dose screen (melanoma); conditions: 10 µM single dose, 48 h
Description: as §1

[36] = tested on: MALME-3M; assay: NCI-60 one-dose screen (melanoma); conditions: 10 µM single dose, 48 h
Description: as §1

[37] = tested on: UACC-257; assay: NCI-60 one-dose screen (melanoma); conditions: 10 µM single dose, 48 h
Description: as §1

[38] = tested on: SK-MEL-2; assay: NCI-60 one-dose screen (melanoma); conditions: 10 µM single dose, 48 h
Description: as §1

[39] = tested on: SK-OV-3; assay: NCI-60 five-dose assay (ovarian cancer); conditions: 48 h, SRB
[40] = Homo sapiens, read-out: LC50 (the source's name)

Question: What does the source list for `CCOc1ccc(NC2=C(Cl)C(=O)c3nc(C)ccc3C2=O)cc1` [AQQ3]?
Answer: TGI [1]: 2.75 µM; GI50 ([1]; Homo sapiens): 1.43 µM; LC50 (lethal concentration 50%) ([1]; Homo sapiens): 5.28 µM; TGI [2]: 2.80 µM; GI50 ([2]; Homo sapiens): 1.43 µM; LC50 (concentration giving 50% net cell kill) ([2]; Homo sapiens): 5.49 µM; TGI [3]: 10.4 µM; GI50 ([3]; Homo sapiens): 3.08 µM; CC50 [3, 40]: 49.7 µM; TGI [4]: 2.79 µM; GI50 ([4]; Homo sapiens): 1.46 µM; LC50 (50% lethal concentration) ([4]; Homo sapiens): 5.33 µM; TGI [5]: 3.22 µM; GI50 ([5]; Homo sapiens): 1.75 µM; LC50 ([5]; Homo sapiens): 5.94 µM; TGI [6]: 2.77 µM; GI50 ([6]; Homo sapiens): 1.29 µM; CC50 [6, 40]: 5.93 µM; GP (growth percentage) [7]: 57.40%; GP (growth percentage) [8]: −83.64%; GP (growth percentage) [9]: 98.22%; GP (growth percentage) [10]: −55.33%; GP (growth percentage) ([11]; 10 µM single dose, 48 h): 15.90%; inhibition at 10 µM ([11]; Homo sapiens, HT-29, 10 µM single dose): 84.1%; GP (growth percentage) [12]: −55.70%; GP (growth percentage) [13]: −83.19%; TGI [14]: 4.11 µM; GI50 ([14]; Homo sapiens): 1.7 µM; CC50 [14, 40]: 9.93 µM; TGI ([15]; 48 h): 2.76 µM; GI50 ([15]; Homo sapiens, IGROV-1, 48 h): 1.36 µM; LC50 ([15]; Homo sapiens, IGROV-1, 48 h): 5.61 µM; TGI [16]: 3.12 µM; GI50 ([16]; Homo sapiens): 1.61 µM; CC50 [16, 40]: 6.05 µM; TGI [17]: 3.25 µM; GI50 ([17]; Homo sapiens): 1.76 µM; LC50 (concentration killing 50% of cells) ([17]; Homo sapiens): 6 µM; TGI [18]: >100 µM; GI50 ([18]; Homo sapiens): 2.49 µM; LC50 ([18]; Homo sapiens): > 100 µM; TGI [19]: 3.43 µM; GI50 ([19]; Homo sapiens): 1.86 µM; LC50 (50% lethal concentration) ([19]; Homo sapiens): 6.3 µM; TGI ([20]; 48 h): 7.08 µM; GI50 ([20]; Homo sapiens, HT-29, 48 h): 2.87 µM; LC50 (concentration killing 50% of cells) ([20]; Homo sapiens, HT-29, 48 h): 62.5 µM; TGI [21]: 1.53 µM; GI50 ([21]; Homo sapiens): 0.442 µM; CC50 [21, 40]: 3.99 µM; TGI [22]: 2.19 µM; GI50 ([22]; Homo sapiens): 0.962 µM; CC50 [22, 40]: 4.87 µM; TGI [23]: 3.09 µM; GI50 ([23]; Homo sapiens): 1.55 µM; LC50 (concentration killing 50% of cells) ([23]; Homo sapiens): 6.14 µM; GP (growth percentage) [24]: −61.00%; GP (growth percentage) [25]: −57.33%; GP (growth percentage) [26]: 121.08%; GP (growth percentage) ([27]; 48 h): 8.39%; inhibition at 10 µM ([27]; Homo sapiens): 91.6%; GP (growth percentage) [28]: 100.96%; GP (growth percentage) [29]: −98.42%; GP (growth percentage) [30]: −65.05%; GP (growth percentage) [31]: −98.64%; GP (growth percentage) ([32]; 48 h): 8.93%; inhibition at 10 µM ([32]; Homo sapiens): 91.1%; GP (growth percentage) [33]: −43.31%; GP (growth percentage) [34]: −83.74%; GP (growth percentage) [35]: −76.37%; GP (growth percentage) [36]: −90.58%; GP (growth percentage) [37]: −89.19%; GP (growth percentage) [38]: −49.77%; TGI [39]: 30.1 µM; GI50 ([39]; Homo sapiens): 11 µM; LC50 (50% net cell kill) ([39]; Homo sapiens): 82.3 µM
